Reference: patent US11858919B2, “HDAC1,2 inhibitors” (REGENACY PHARMACEUTICALS, LLC, priority 2018, dated 2024)
Read-outs that look alike come from different tables or passages of the source.

Legend:
[1] = biological target: T1, HDAC1 (Homo sapiens, UniProt Q13547); assay: HDAC enzyme assay, HDAC1 (fluorescence, tripeptide substrate/trypsin); format: biochemical; settings: 3.3 ng/ml enzyme, 16 μM substrate, 10 min preincubation
T1 construct: purchased BPS Biosciences
Method: (§1) Compounds for testing were diluted in […] to 50 fold the final concentration and a ten-point three-fold dilution series was made. The compounds were diluted in assay buffer (50 mM HEPES, pH 7.4, 100 mM KCl, 0.001% Tween-20, 0.05% BSA, 20 μM TCEP) to 6-fold their final concentration. The HDAC enzymes (purchased from BPS Biosciences) were diluted to 1.5-fold their final concentration in assay buffer. The tripeptide substrate and trypsin at 0.05 μM final concentration were diluted in assay buffer at 6-fold their final concentration. The final enzyme concentrations used in these assays were 3.3 ng/ml (HDAC1), 0.2 ng/ml (HDAC2) and 0.08 ng/ml (HDAC3). The final substrate concentrations used were 16 μM (HDAC1), 10 μM (HDAC2) and 17 μM (HDAC3).
(§2) Five μl of compounds and 20 μl of enzyme were added to wells of a black, opaque 384 well plate in duplicate. Enzyme and compound were incubated together at room temperature for 10 minutes. Five μl of substrate was added to each well, the plate was shaken for 60 seconds and placed into a Victor 2 microtiter plate reader. The development of fluorescence was monitored for 60 min and the linear rate of the reaction was calculated. The IC50 was determined using Graph Pad Prism by a four parameter curve fit.

[2] = biological target: T2, HDAC2 (Homo sapiens, UniProt Q92769); assay: HDAC enzyme assay, HDAC2 (fluorescence, tripeptide substrate/trypsin); format: biochemical; settings: 0.2 ng/ml enzyme, 10 μM substrate, 10 min preincubation
T2 construct: purchased BPS Biosciences
T2 sequence (Q92769 whole entry): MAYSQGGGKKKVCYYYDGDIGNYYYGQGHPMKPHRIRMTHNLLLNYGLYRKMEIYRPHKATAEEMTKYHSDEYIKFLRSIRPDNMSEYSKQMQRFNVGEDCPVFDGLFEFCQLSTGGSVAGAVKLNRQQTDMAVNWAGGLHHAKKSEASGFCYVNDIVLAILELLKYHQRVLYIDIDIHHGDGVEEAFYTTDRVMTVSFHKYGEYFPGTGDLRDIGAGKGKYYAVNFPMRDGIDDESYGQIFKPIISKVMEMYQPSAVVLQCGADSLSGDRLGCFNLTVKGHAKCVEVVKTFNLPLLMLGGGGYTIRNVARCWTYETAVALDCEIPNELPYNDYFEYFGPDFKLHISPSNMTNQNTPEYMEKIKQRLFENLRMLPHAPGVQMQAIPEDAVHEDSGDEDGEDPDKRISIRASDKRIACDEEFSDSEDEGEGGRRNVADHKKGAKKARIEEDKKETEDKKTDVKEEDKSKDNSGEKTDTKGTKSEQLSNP
Method: as §1, §2

[3] = biological target: T3, HDAC3 (Homo sapiens, UniProt O15379); assay: HDAC enzyme assay, HDAC3 (fluorescence, tripeptide substrate/trypsin); format: biochemical; settings: 0.08 ng/ml enzyme, 17 μM substrate, 10 min preincubation
T3 construct: purchased BPS Biosciences
T3 sequence (O15379 whole entry): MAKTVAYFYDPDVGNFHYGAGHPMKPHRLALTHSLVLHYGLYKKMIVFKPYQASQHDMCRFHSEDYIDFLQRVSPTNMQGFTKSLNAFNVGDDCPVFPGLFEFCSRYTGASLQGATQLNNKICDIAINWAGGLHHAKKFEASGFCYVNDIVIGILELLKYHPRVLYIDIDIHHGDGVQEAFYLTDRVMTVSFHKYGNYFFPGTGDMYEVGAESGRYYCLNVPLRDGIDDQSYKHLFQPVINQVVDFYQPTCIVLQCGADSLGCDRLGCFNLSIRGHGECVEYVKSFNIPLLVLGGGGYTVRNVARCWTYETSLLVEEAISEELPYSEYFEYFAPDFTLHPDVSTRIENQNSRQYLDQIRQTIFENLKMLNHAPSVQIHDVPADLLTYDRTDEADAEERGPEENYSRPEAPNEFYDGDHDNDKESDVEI
T3 sequence (Q9Y618 395-489 partner limits assumed): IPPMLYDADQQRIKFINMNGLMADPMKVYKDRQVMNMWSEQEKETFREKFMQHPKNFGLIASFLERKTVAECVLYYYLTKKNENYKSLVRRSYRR
Method: as §1, §2

[4] = Pharmacokinetics in male SD rats (cassette dosing, IV and PO), plasma level by LC/MS/MS; format: in vivo; settings: male SD rat; for bioavailability: dose adjusted PO AUC (5 mg/kg) to IV AUC (1 mg/kg), read-out: F % (oral bioavailability); for CL renal: read-out: IV Clr.
Method: Male SD rats were fasted overnight. Compounds of the invention were dissolved in dimethyl acetamide at 10 times the final concentration, then Solutol HS 15 (BASF) was added to a final concentration of 10%. Finally, 80% saline was added and vortexed to achieve a clear solution. For the IV dosing three animals were injected via the foot dorsal vein with 1 mg/kg compound. For the PO dosing 5 mg/kg of compound was delivered by oral gavage. Blood was collected via the tail vein into K2EDTA tubes at 5 minutes, 15 minutes, 30 minutes, 1 hour, 2 hours, 4 hours, 8 hours and 24 hours after dosing. The blood was centrifuged at 2000 g for 5 minutes at 4° C. to obtain plasma. The plasma was extracted with acetonitrile and the level of compound was analyzed by LC/MS/MS. The level of compound in plasma was calculated from a standard curve in rat plasma. The IV clearance (L/h/kg) and area under the curve (h*ng/mL) were calculated using WinNonLin software. The dose adjusted area under the curve for the IV and oral dosing were used to calculate the oral bioavailability.
Pharmacokinetic properties were assessed in a rat cassette dosing experiment. The IV clearance (IV Clr.) is in units of L/hr/kg. The oral maximum plasma concentration (PO Cmax) is in units of ng/ml. The oral plasma half-life (PO T½) is in units of hours. The oral area under the curve (PO AUC) is in units of hours*ng/ml. The fraction absorbed by the oral route (F %) is a percentage of the oral area under the curve to the IV area under the curve, dose adjusted.

[5] = PO 5 mg/kg oral gavage, read-out: PO AUC
[6] = PO 5 mg/kg oral gavage, read-out: PO t1/2

T1 sequence (Q13547 whole entry): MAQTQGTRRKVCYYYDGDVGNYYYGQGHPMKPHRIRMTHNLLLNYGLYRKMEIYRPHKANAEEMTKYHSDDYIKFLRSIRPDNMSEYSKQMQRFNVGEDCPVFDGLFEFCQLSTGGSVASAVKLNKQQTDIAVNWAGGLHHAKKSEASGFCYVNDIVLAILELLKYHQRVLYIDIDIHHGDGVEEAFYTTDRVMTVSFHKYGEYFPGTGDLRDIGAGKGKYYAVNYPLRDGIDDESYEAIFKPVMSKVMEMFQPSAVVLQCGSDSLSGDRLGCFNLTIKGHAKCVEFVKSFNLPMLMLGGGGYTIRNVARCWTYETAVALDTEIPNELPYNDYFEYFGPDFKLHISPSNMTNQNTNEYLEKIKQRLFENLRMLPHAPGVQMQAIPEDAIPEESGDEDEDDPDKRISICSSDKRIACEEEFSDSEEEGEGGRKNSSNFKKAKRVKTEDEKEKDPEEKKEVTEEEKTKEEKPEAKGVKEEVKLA

Compound	IC50 [1] [nM]	IC50 [2] [nM]	IC50 [3] [nM]	IV clearance ([4]; IV 1 mg/kg) [mL/min/kg]	AUC ([4]; IV 1 mg/kg, read-out: IV AUC) [ng·h/mL]	half-life ([4]; IV 1 mg/kg, read-out: IV t1/2) [h]	Cmax ([4]; PO 5 mg/kg oral gavage) [ng/mL]	AUC [4, 5] [ng·h/mL]	half-life [4, 6] [h]	bioavailability [4] [%]	CL renal ([4]; IV 1 mg/kg) [mL/min/kg]
Nc1ccc(-c2ccccc2)cc1NC(=O)c1ccc2ncn(CCN3CCOCC3)c2c1 [Compound 008]	625 to 650	> 2000	> 2000	–	–	–	–	–	–	–	–
Nc1ccc(-c2cccs2)cc1NC(=O)c1ccc2c(c1)ncn2CCN1CCOCC1 [Compound 021]	5 to 10	15 to 20	430 to 440	1.67 to 16.7	3700 to 3800	1 to 5	5250 to 5300	21400	1 to 5	110 to 120	–
COCCNc1ccc2cc(C(=O)Nc3cc(-c4cccs4)ccc3N)cnc2c1 [Compound 029]	15 to 25	50 to 105	750 to 760	–	20 to 25	1 to 3	–	–	–	–	< 1.67
CN1C(=O)Cc2cc(C(=O)Nc3cc(-c4ccc(O)cc4)ccc3N)ccc21 [Compound 007]	25 to 30	60 to 65	2740 to 2750	–	–	–	–	–	–	–	–
Nc1ccc(-c2cccs2)cc1NC(=O)c1ccc2[nH]cnc2c1 [Compound 018]	1 to 10	20 to 35	150 to 235	0.167 to 8.33	19600 to 19800	10 to 15	5550 to 5600	81800 to 82000	5 to 10	75 to 85	–
CN(C)CCNc1ccc2cc(C(=O)Nc3cc(-c4cccs4)ccc3N)ncc2c1 [Compound 024]	< 5	5 to 10	15 to 90	–	20 to 25	15 to 20	–	–	–	–	< 8.33
Nc1ccc(-c2cccs2)cc1NC(=O)c1ccc2ncn(CCN3CCOCC3)c2c1 [Compound 022]	885 to 895	1240 to 1250	1210 to 1220	–	–	–	–	–	–	–	–
CN1C(=O)C(C)(C)c2cc(C(=O)Nc3cc(-c4cccs4)ccc3N)ccc21 [Compound 014]	4180 to 4200	2140 to 2150	3370 to 3380	–	–	–	–	–	–	–	–
Cc1nc2ccc(C(=O)Nc3cc(-c4cccs4)ccc3N)cc2[nH]1 [Compound 020]	5 to 10	25 to 30	1300 to 1310	–	–	–	–	–	–	–	–
CN1CCN(c2ccc3cc(C(=O)Nc4cc(-c5cccs5)ccc4N)cnc3c2)CC1 [Compound 032]	5 to 10	25 to 35	280 to 300	–	< 15	0.5 to 2	–	–	–	–	< 8.33
COCCN(C)c1ccc2cc(C(=O)Nc3cc(-c4cccs4)ccc3N)cnc2c1 [Compound 030]	50 to 55	155 to 160	1200 to 1230	–	1 to 5	< 0.5	–	–	–	–	< 1.67
CN1CCN(c2ccc3cc(C(=O)Nc4cc(-c5nccn5C)ccc4N)cnc3c2)CC1 [Compound 027]	> 2000	> 2000	> 2000	–	–	–	–	–	–	–	–
Nc1ccc(-c2ccccc2)cc1NC(=O)c1ccc2c(c1)ncn2CCN1CCOCC1 [Compound 017]	1 to 10	10 to 20	450 to 460	–	–	–	–	–	–	–	–
Nc1ccc(-c2cccs2)cc1NC(=O)c1ccc2c(c1)CC(=O)N2CCCN1CCOCC1 [Compound 016]	1 to 10	5 to 15	710 to 720	–	–	–	–	–	–	–	–
Nc1ccc(-c2cccs2)cc1NC(=O)c1ccc2c(c1)CC(=O)N2CCN1CCOCC1 [Compound 003]	1 to 10	5 to 25	145 to 590	1.67 to 16.7	1800 to 1900	5 to 10	950 to 1000	11400 to 11600	5 to 10	130 to 140	–
Nc1ccc(-c2cccs2)cc1NC(=O)c1ccc2[nH]c(C3CC3)nc2c1 [Compound 009]	10 to 15	40 to 45	470 to 480	0.167 to 8.33	10800	15 to 20	4150 to 4200	65200 to 65400	10 to 15	115 to 125	–
CN1C(=O)Cc2cc(C(=O)Nc3cc(-c4cccs4)ccc3N)ccc21 [Compound 001]	5 to 10	10 to 15	340 to 350	–	40000 to 40200	–	6950 to 7000	140000	–	65 to 75	–
Cn1cnc2ccc(C(=O)Nc3cc(-c4cccs4)ccc3N)cc21 [Compound 010]	375 to 380	210 to 220	985 to 995	–	–	–	–	–	–	–	–
Nc1ccc(-c2ccccc2)cc1NC(=O)c1ccc2c(c1)CC(=O)N2CC1CC1 [Compound 002]	20 to 25	45 to 50	925 to 935	0.167 to 8.33	6500 to 6600	1 to 5	2450 to 2500	22400	5 to 10	65 to 75	–
CN(C)CCNc1ccc2cc(C(=O)Nc3cc(-c4cccs4)ccc3N)cnc2c1 [Compound 025]	5 to 15	15 to 20	110 to 200	–	15 to 20	1 to 5	–	–	–	–	< 8.33
Cn1cnc2cc(C(=O)Nc3cc(-c4cccs4)ccc3N)ccc21 [Compound 019]	15 to 20	35 to 40	690 to 700	–	–	–	–	–	–	–	–
Nc1ccc(-c2cccs2)cc1NC(=O)c1ccc2c(c1)CC(=O)N2CCN1CCCCC1 [Compound 006]	10 to 15	70 to 75	1130 to 1140	–	–	–	–	–	–	–	–
Nc1ccc(-c2cccs2)cc1NC(=O)c1ccc2nc(N3CCNCC3)ccc2c1 [Compound 028]	50 to 60	50 to 60	290 to 300	–	–	–	–	–	–	–	–
CN1C(=O)Cc2cc(C(=O)Nc3cc(-c4ccco4)ccc3N)ccc21 [Compound 015]	15 to 25	30 to 40	640 to 650	–	–	–	–	–	–	–	–
CNCCCOc1ccc2cc(C(=O)Nc3cc(-c4cccs4)ccc3N)cnc2c1 [Compound 026]	25 to 30	20 to 25	85 to 95	–	–	–	–	–	–	–	–
